Test results reported in patent publication US20250382332A1, “NOVEL ALPHA-FACTOR BASED PEPTIDES WITH ANTIFUNGAL ACTIVITY” (INVAIO SCIENCES, INC., priority 2024, published 2025).
Peptide text beside a SMILES is read from it.

Tested on: Botrytis cinerea (B05.10)
Experiment: Resazurin antifungal assay of 180 alpha-factor peptide variants towards Botrytis (Example 2)
Format: cell-based
Conditions: % inhibition of fungal growth, Botrytis conidia, resazurin; for Inhibition at 50 μM: peptide 50 μM; for Inhibition at 100 μM: peptide 100 μM
How it was run: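 Resazurin viability read-out (570/620 nm fluorescence) after a 24 h, 20° C incubation of B05.10 conidia, 5000 per well, with peptide at final 10-100 μM. Growth inhibition (%) was derived by subtracting conidia-only fluorescence; four replicates per treatment.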

| SMILES | Inhibition at 50 μM [%] | Inhibition at 100 μM [%] |
| --- | --- | --- |
| CC[C@H](C)[C@H](NC(=O)[C@H](CCC(N)=O)NC(=O)CNC(=O)[C@H](CCSC)NC(=O)[C@H](CO)NC(=O)[C@@H](N)Cc1c[nH]c2ccccc12)C(=O)N[C@@H](CCCCN)C(=O)N1CCC[C@H]1C(=O)NCC(=O)N[C@@H](CO)C(=O)N1CCC[C@H]1C(=O)N[C@@H](CCSC)C(=O)N[C@@H](Cc1ccc(O)cc1)C(=O)O [compound 120] (H-WSMGQIKPGSPMY-OH; N-terminus and C-terminus assumed) | <90 | <90 |
| CC[C@H](C)[C@H](NC(=O)[C@H](CCC(N)=O)NC(=O)[C@H](CC(C)C)NC(=O)CNC(=O)[C@H](CO)NC(=O)[C@@H]1CCCN1)C(=O)N[C@@H](CCCCN)C(=O)N[C@H](C(=O)NCC(=O)N[C@@H](CCC(N)=O)C(=O)N1CCC[C@H]1C(=O)N[C@@H](CCSC)C(=O)N[C@@H](Cc1ccc(O)cc1)C(=O)O)C(C)C [compound 121] (H-PSGLQIKVGQPMY-OH; N-terminus and C-terminus assumed) | <90 | <90 |
| CSCC[C@H](NC(=O)[C@H](CO)NC(=O)[C@H](CO)NC(=O)CNC(=O)[C@@H]1CCCN1C(=O)[C@H](CCCCN)NC(=O)[C@H](CC(C)C)NC(=O)[C@H](CO)NC(=O)[C@H](CC(C)C)NC(=O)[C@H](Cc1c[nH]c2ccccc12)NC(=O)[C@H](CCC(=O)O)NC(=O)[C@@H]1CCCN1)C(=O)N[C@@H](Cc1ccc(O)cc1)C(=O)O [compound 122] (H-PEWLSLKPGSSMY-OH; N-terminus and C-terminus assumed) | <90 | <90 |
| CSCC[C@H](NC(=O)CNC(=O)[C@H](CCC(N)=O)NC(=O)CNC(=O)[C@H](Cc1ccc(O)cc1)NC(=O)[C@H](CCCCN)NC(=O)[C@H](CC(C)C)NC(=O)[C@H](CCC(N)=O)NC(=O)[C@@H](NC(=O)[C@H](Cc1c[nH]c2ccccc12)NC(=O)[C@H](CCC(N)=O)NC(=O)[C@@H](N)CCCCN)C(C)C)C(=O)N[C@@H](Cc1ccc(O)cc1)C(=O)O [compound 123] (H-KQWVQLKYGQGMY-OH; N-terminus and C-terminus assumed) | <90 | 100 |
| CC[C@H](C)[C@H](NC(=O)CNC(=O)[C@H](Cc1c[nH]cn1)NC(=O)[C@@H](N)Cc1c[nH]c2ccccc12)C(=O)N[C@@H](CCC(N)=O)C(=O)N[C@@H](CC(C)C)C(=O)N[C@@H](Cc1ccccc1)C(=O)N[C@@H](CCCCN)C(=O)NCC(=O)N[C@@H](CCC(N)=O)C(=O)N1CCC[C@H]1C(=O)N[C@@H](CCSC)C(=O)N[C@@H](Cc1ccc(O)cc1)C(=O)O [compound 124] (H-WHGIQLFKGQPMY-OH; N-terminus and C-terminus assumed) | <90 | 100 |
| CSCC[C@H](NC(=O)[C@@H]1CCCN1C(=O)[C@H](CCC(N)=O)NC(=O)CNC(=O)[C@@H]1CCCN1C(=O)[C@H](Cc1ccc(O)cc1)NC(=O)[C@H](CC(C)C)NC(=O)[C@H](CCC(N)=O)NC(=O)[C@@H](NC(=O)[C@H](Cc1c[nH]c2ccccc12)NC(=O)[C@H](CCC(=O)O)NC(=O)[C@@H](N)CCCCN)C(C)C)C(=O)N[C@@H](Cc1ccc(O)cc1)C(=O)O [compound 125] (H-KEWVQLYPGQPMY-OH; N-terminus and C-terminus assumed) | <90 | <90 |
| CSCC[C@H](NC(=O)CNC(=O)[C@H](CCC(N)=O)NC(=O)CNC(=O)[C@@H]1CCCN1C(=O)[C@H](CCCCN)NC(=O)[C@H](Cc1ccccc1)NC(=O)[C@H](CCC(=O)O)NC(=O)[C@H](CC(C)C)NC(=O)[C@H](CC(=O)O)NC(=O)[C@H](Cc1c[nH]cn1)NC(=O)[C@@H]1CCCN1)C(=O)N[C@@H](Cc1ccc(O)cc1)C(=O)O [compound 126] (H-PHDLEFKPGQGMY-OH; N-terminus and C-terminus assumed) | <90 | <90 |
| CC[C@H](C)[C@H](NC(=O)[C@H](CO)NC(=O)[C@H](CCCCN)NC(=O)[C@@H](N)Cc1c[nH]c2ccccc12)C(=O)N[C@@H](CC(N)=O)C(=O)N[C@@H](Cc1ccccc1)C(=O)N[C@@H](CCCCN)C(=O)N1CCC[C@H]1C(=O)NCC(=O)N[C@@H](CCC(N)=O)C(=O)N1CCC[C@H]1C(=O)N[C@@H](CCSC)C(=O)N[C@@H](Cc1ccc(O)cc1)C(=O)O [compound 127] (H-WKSINFKPGQPMY-OH; N-terminus and C-terminus assumed) | <90 | <90 |
| CSCC[C@H](NC(=O)[C@@H]1CCCN1C(=O)[C@H](CCC(N)=O)NC(=O)CNC(=O)[C@@H]1CCCN1C(=O)[C@H](CC(=O)O)NC(=O)[C@H](Cc1ccccc1)NC(=O)[C@H](CCC(=O)O)NC(=O)[C@@H](NC(=O)[C@H](Cc1c[nH]c2ccccc12)NC(=O)[C@H](Cc1c[nH]cn1)NC(=O)[C@@H]1CCCN1)C(C)C)C(=O)N[C@@H](Cc1ccc(O)cc1)C(=O)O [compound 128] (H-PHWVEFDPGQPMY-OH; N-terminus and C-terminus assumed) | <90 | <90 |
| CSCC[C@H](NC(=O)[C@@H]1CCCN1C(=O)[C@H](CCC(N)=O)NC(=O)CNC(=O)[C@@H]1CCCN1C(=O)[C@H](Cc1c[nH]cn1)NC(=O)[C@H](CC(C)C)NC(=O)[C@H](CCC(=O)O)NC(=O)[C@H](CC(C)C)NC(=O)CNC(=O)[C@H](CCC(N)=O)NC(=O)[C@@H](N)Cc1c[nH]c2ccccc12)C(=O)N[C@@H](Cc1ccc(O)cc1)C(=O)O [compound 129] (H-WQGLELHPGQPMY-OH; N-terminus and C-terminus assumed) | <90 | <90 |
| CSCC[C@H](NC(=O)[C@@H]1CCCN1C(=O)[C@H](CO)NC(=O)CNC(=O)[C@@H]1CCCN1C(=O)[C@H](CCCCN)NC(=O)[C@H](CC(C)C)NC(=O)[C@@H](NC(=O)[C@H](CC(C)C)NC(=O)[C@@H](NC(=O)[C@H](CCC(=O)O)NC(=O)[C@@H](N)Cc1c[nH]c2ccccc12)C(C)C)[C@@H](C)O)C(=O)N[C@@H](Cc1ccc(O)cc1)C(=O)O [compound 130] (H-WEVLTLKPGSPMY-OH; N-terminus and C-terminus assumed) | <90 | <90 |
| CC[C@H](C)[C@H](NC(=O)[C@H](CC(C)C)NC(=O)[C@H](Cc1c[nH]cn1)NC(=O)[C@@H]1CCCN1)C(=O)N[C@@H](CCC(N)=O)C(=O)N[C@@H](CC(C)C)C(=O)NCC(=O)N[C@@H](CC(C)C)C(=O)NCC(=O)N[C@@H](CCC(N)=O)C(=O)N1CCC[C@H]1C(=O)N[C@@H](CCSC)C(=O)N[C@@H](Cc1ccc(O)cc1)C(=O)O [compound 131] (H-PHLIQLGLGQPMY-OH; N-terminus and C-terminus assumed) | <90 | <90 |
